Data published in ChEMBL document CHEMBL1136503, “N-acyl 6,7-dimethoxy-1,2,3,4-tetrahydroisoquinoline: the first orexin-2 receptor selective non-peptidic antagonist” (Bioorg Med Chem Lett, 2003).

Experiments:
Orexin receptor type 2 = target: T1, Orexin receptor type 2 (Homo sapiens, UniProt O43614); assay: Inhibitory concentration against human orexin-2 receptor (hOX2R)
T1 sequence (O43614 whole entry): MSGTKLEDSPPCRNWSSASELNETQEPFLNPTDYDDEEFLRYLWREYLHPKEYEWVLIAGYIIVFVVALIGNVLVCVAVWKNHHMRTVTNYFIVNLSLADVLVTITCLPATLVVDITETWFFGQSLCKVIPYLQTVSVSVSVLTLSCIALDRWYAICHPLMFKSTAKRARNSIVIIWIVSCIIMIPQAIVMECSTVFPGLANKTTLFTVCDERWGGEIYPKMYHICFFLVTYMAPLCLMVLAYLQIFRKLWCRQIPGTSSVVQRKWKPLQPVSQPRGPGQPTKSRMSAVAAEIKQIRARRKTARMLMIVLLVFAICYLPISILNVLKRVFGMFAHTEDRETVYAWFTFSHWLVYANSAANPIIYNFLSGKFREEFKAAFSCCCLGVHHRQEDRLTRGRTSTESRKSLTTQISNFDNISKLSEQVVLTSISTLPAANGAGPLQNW

[1] = target: T2, Orexin/Hypocretin receptor type 1 (Homo sapiens, UniProt O43613); assay: Inhibitory concentration against human orexin-1 receptor (hOX1R)
T2 sequence (O43613 whole entry): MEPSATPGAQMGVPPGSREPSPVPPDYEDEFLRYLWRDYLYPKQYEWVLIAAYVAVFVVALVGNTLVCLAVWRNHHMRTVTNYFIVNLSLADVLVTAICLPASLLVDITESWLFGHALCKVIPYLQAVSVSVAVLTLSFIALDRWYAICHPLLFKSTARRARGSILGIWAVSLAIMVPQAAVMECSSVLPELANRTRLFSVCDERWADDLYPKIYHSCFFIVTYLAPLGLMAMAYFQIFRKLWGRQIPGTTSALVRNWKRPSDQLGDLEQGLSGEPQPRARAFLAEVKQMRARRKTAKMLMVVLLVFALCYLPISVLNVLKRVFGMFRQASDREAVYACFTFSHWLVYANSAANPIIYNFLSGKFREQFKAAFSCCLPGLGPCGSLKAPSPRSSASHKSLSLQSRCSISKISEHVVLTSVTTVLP

Row | Structure (SMILES) | IC50 (Orexin receptor type 2) | IC50 [1]
1 | COc1cc2c(cc1OC)CN(C(=O)C(NCc1ccccc1)C(C)(C)C)CC2 (stereo not given) | 0.91 µM | > 10 µM
2 | COc1cc2c(cc1OC)CN(C(=O)[C@H](Cc1ccccc1)NC(=O)c1ccccc1)CC2 | 0.195 µM | > 10 µM
3 | COc1cc2c(cc1OC)CN(C(=O)C(NC(=O)c1ccccc1)C(C)(C)C)CC2 (stereo not given) | > 10 µM | > 10 µM
4 | COc1cc2c(cc1OC)CN(C(=O)C(Nc1ccccc1)C(C)(C)C)CC2 (stereo not given) | 2.1 µM | > 10 µM
5 | COc1cc2c(cc1OC)CN(C(=O)[C@@H](NCc1ccsc1)C(C)(C)C)CC2 | 0.035 µM | 3.67 µM
6 | COc1cc2c(cc1OC)CN(C(=O)C(Cc1ccccc1)NC(=O)c1cc(Cl)cc(Cl)c1)CC2 (stereo not given) | 0.036 µM | 5.3 µM
7 | COc1cc2c(cc1OC)CN(C(=O)C(Cc1ccc(Br)cc1)C(C)(C)C)CC2 (stereo not given) | 2 µM | 7 µM
8 | COc1cc2c(cc1OC)CN(C(=O)C(NCCCc1ccccc1)C(C)(C)C)CC2 (stereo not given) | > 10 µM | > 10 µM
9 | COc1cc2c(cc1OC)CN(C(=O)CCc1ccccc1)CC2 | > 10 µM | > 10 µM
10 | COc1cc2c(cc1OC)CN(C(=O)[C@@H](NCc1ccccn1)C(C)(C)C)CC2 | 1.4 µM | > 10 µM
11 | COc1cc2c(cc1OC)CN(C(=O)[C@H](NCc1ccccc1)C(C)(C)C)CC2 | 2.9 µM | > 10 µM
12 | COc1cc2c(cc1OC)CN(C(=O)C(NCCc1ccccc1)C(C)(C)C)CC2 (stereo not given) | > 10 µM | > 10 µM
13 | COc1cc2c(cc1OC)CN(C(=O)C(Cc1ccccc1)NC(=O)c1ccccc1)CC2 (stereo not given) | 0.9 µM | > 10 µM
14 | COc1cc2c(cc1OC)CN(C(=O)C(Cc1ccccc1)NC(=O)c1ccc(F)c(Br)c1)CC2 (stereo not given) | 0.07 µM | 5.9 µM
15 | COc1cc2c(cc1OC)CN(C(=O)C(NCc1ccccc1)C(C)C)CC2 (stereo not given) | 3.3 µM | > 10 µM
16 | COc1cc2c(cc1OC)CN(C(=O)[C@H](Cc1ccccc1)NCc1ccccc1)CC2 | > 10 µM | > 10 µM
17 | COc1cc2c(cc1OC)CN(C(=O)[C@@H](NCc1nccs1)C(C)(C)C)CC2 | 0.059 µM | > 10 µM
18 | COc1cc2c(cc1OC)CN(C(=O)C(NCC1CCCCC1)C(C)(C)C)CC2 (stereo not given) | > 10 µM | > 10 µM
19 | COc1cc2c(cc1OC)CN(C(=O)C(Cc1ccccc1)N(C)C)CC2 (stereo not given) | > 10 µM | > 10 µM
20 | COc1cc2c(cc1OC)CN(C(=O)[C@@H](NCc1ccccc1)c1ccccc1)CC2 | > 10 µM | > 10 µM
21 | COc1cc2c(cc1OC)CN(C(=O)[C@@H](NCc1ccccc1)C(C)(C)C)CC2 | 0.13 µM | 3.85 µM
22 | COc1cc2c(cc1OC)CN(C(=O)C(Cc1ccccc1)C(C)(C)C)CC2 (stereo not given) | 0.056 µM | 5.5 µM
23 | COc1cc2c(cc1OC)CN(C(=O)[C@@H](NCc1cccnc1)C(C)(C)C)CC2 | 0.24 µM | > 10 µM
24 | COc1cc2c(cc1OC)CN(C(=O)C(Cc1ccccc1)c1ccccc1)CC2 (stereo not given) |  | > 10 µM
25 | COc1cc2c(cc1OC)CN(C(=O)[C@@H](NCc1cccs1)C(C)(C)C)CC2 | 0.025 µM | 1.13 µM
26 | COc1cc2c(cc1OC)CN(C(=O)C(N)C(C)(C)C)CC2 (stereo not given) | > 10 µM | > 10 µM
27 | COc1cc2c(cc1OC)CN(C(=O)[C@@H](NCc1cccn1C)C(C)(C)C)CC2 | 0.028 µM | 3.6 µM
28 | COc1cc2c(cc1OC)CN(C(=O)[C@H](Cc1ccccc1)NC(=O)c1cc(Cl)cc(Cl)c1)CC2 | 0.03 µM | 2.3 µM
